Results as given in ChEMBL document CHEMBL1148250, “MexAB-OprM specific efflux pump inhibitors in Pseudomonas aeruginosa. Part 4: Addressing the problem of poor stability due to photoisomerization of an acrylic acid moiety” (2004).

Legend:
Assay type in all cases: functional
Pseudomonas aeruginosa [1] = test: Minimum concentration (using PAM1723, a strain of Pseudomonas aeruginosa) required to reduce antibacterial activity by 4 folds for Levofloxacin
Pseudomonas aeruginosa [2] = test: Minimum concentration (using PAM1723, a strain of Pseudomonas aeruginosa) required to reduce antibacterial activity by 8 folds for Levofloxacin
Pseudomonas aeruginosa [3] = test: Minimum concentration (using PAM1723, a strain of Pseudomonas aeruginosa) required to reduce antibacterial activity by 8 folds for aztreonam in the absence of human serum albumin
Pseudomonas aeruginosa [4] = test: Minimum concentration (using PAM1723, a strain of Pseudomonas aeruginosa) required to reduce antibacterial activity by 8 folds for aztreonam in the presence 0.125% of human serum albumin

SMILES | MPC4 (Pseudomonas aeruginosa [1]) [µg/mL] | MPC8 (Pseudomonas aeruginosa [2]) [µg/mL] | MPC8 (Pseudomonas aeruginosa [3]) [µg/mL] | MPC8 (Pseudomonas aeruginosa [4]) [µg/mL]
CC(C)(C)c1csc(NC(=O)c2ccn3c(=O)c(/C=C/c4nnn[nH]4)c(N4CCC[C@@H](OC(N)=O)C4)nc3c2)n1 | <0.25 | 0.5 | <0.25 | 2
CC(C)(C)c1csc(NC(=O)c2ccn3c(=O)c(/C=C/C(=O)O)c(N4CCC[C@@H](OC(N)=O)C4)nc3c2)n1 | <0.25 | 1 | 0.5 | 1
CC(C)c1csc(CCc2ccn3c(=O)c(/C=C/C(=O)O)c(N4CCCC(O)C4)nc3c2)n1 (stereo unspecified) | 0.5 | 8 | 8 | 16
CC(C)(C)c1csc(NC(=O)c2ccn3c(=O)c(/C=C/c4nn[nH]n4)c(N4CCC[C@H](OC(N)=O)C4)nc3c2)n1 | 0.5 | 2 | 1 | 4
